Laboratory results taken from publication PMC9465178, “Cinnamaldehyde derivatives act as antimicrobial agents against Acinetobacter baumannii through the inhibition of cell division” (Frontiers in Microbiology, 2022).
Converted amounts (≈) assume the structure as drawn.

Tests used:
human red blood cells = test: Hemolysis assay; assay type: cell-based; conditions: fresh human RBCs, 1 h, 37°C, concentrations up to 4 × MIC (concentration in the value words)
Method: The hemolysis assay was performed using fresh human red blood cells (RBCs). […] These were performed in quadruplicate. Thereafter, 192 μL RBCs were added into all wells and the plates were incubated at 37°C under constant shaking (100 rpm) for 1 h. RBCs were precipitated by centrifugation of the plates (1,000× g for 3 min). An aliquot (100 μL) of each supernatant was transferred into a new 96-microwell plate and the A450 nm was determined using a PerkinElmer Enspire® plate reader. The fraction of intact RBC for each sample was determined as fraction of the intact RBCs for the sample without the addition of compounds (set at 100%) and plotted as a function of compound concentration.
A 1% (v/v) Triton X-100 was used to indicate complete RBC lysis (^‡). […] The assays were performed in quadruplicates. The plates were incubated at 37°C while constantly shaking at 100 rpm for 1 h. Intact RBCs were removed by centrifugation and the presence of hemolytic products in the supernatant were determined by measuring the absorbance at A450 nm. The results are presented in mean ± SEM. Statistical analysis was performed using one-way ANOVA and the asterisks (*) represent statistical significance (*p < 0.05; **p < 0.005; ***p < 0.0005; ****p < 0.0001).

A. baumannii ATCC 19606 = test: Cell division phenotype by light microscopy; assay type: cell-based, Acinetobacter baumannii; conditions: LXC compounds at 2 × MIC
Method: Morphological changes of bacteria when exposed to the compounds were assessed microscopically using the assay as previously described ([Chai et al., 2020]). Eppendorf® tubes were set up with A. baumannii ATCC 19606 as described for the time-kill assays. At time 0, 1, 3, 6, and 18 h, an aliquot of the bacterial suspension (1 μL) was transferred onto a glass slide and viewed under a light microscope (Olympus CX33®) at 100 × magnification. Representative images were captured using JENOPTIK GRYPHAX® imaging.
A 1 μL aliquot was taken out at varying timepoints (0, 1, 3, 6, and 18 h) and imaged by light microscopy. The images for 6 h are depicted here. […] The white arrow indicates “grooving” site, an indication of where separation of daughter cells should take place. Scale bar is 50 μm.
Four of the compounds (LXC 31, 33, 35 and 41) were tested at 1× and 2× their minimum inhibitory concentration (MIC) whereas LXC 36 and 43 were tested at 2× and 4× MIC. The phenotypic changes in A. baumannii morphology were analysed under a light microscope (100× magnification) at time 0, 1, 3, 6 and 18 h. Scale bar is 50 µm.

Caenorhabditis elegans = test: Nematode toxicity (survival); assay type: in vivo; conditions: 1 × and 2 × MIC, up to 72 h, 25°C
Method: Protocols for growing, harvesting, and synchronizing C. elegans have been previously described ([Porta-de-la-Riva et al., 2012]; [Chai et al., 2020]) and were performed with the following modifications. The nematodes were treated with LXC compounds 1 to 6 at 1 × and 2 × MIC with at least 3 replicates using a final DMSO concentration of 2% (v/v). The plate was incubated at 25°C and the number of live vs dead nematodes was enumerated every 24 h for 72 h. […] The percentage of living nematodes at each time point across 72 h was calculated to give the percentage of survival.
FIGURE 10 The LXC compounds (apart from compound 5) were not cytotoxic to C. elegans nematodes. (A–F) C. elegans nematodes were cultured on nematode growth media agar plate and harvested in optimized growth media, with E. coli as its primary source of nutrient. […] The nematodes were counted under a light microscope at 400× magnification and the live nematodes at 72 h was indicated as a fraction of the starting number of nematodes (percentage survival). The results are presented in mean percentage of survival ± SEM. Statistical analysis was performed using two-way ANOVA and the asterisks (*) represent statistical significance: LXC 41 (5) at time 72 h (*p < 0.05).

E. coli ATCC 25922 = tested on: E. coli ATCC 25922; set-up: method as in Li et al., 2015a,b; conditions: ref Li et al., 2015a,b; cited from earlier work
[1] = tested on: Pseudomonas aeruginosa ATCC 27853; set-up: method as in Li et al., 2015a,b; conditions: ref Li et al., 2015a,b; cited from earlier work

Compound	Hemolytic activity (human red blood cells)	Time until elongated phenotype is seen (A. baumannii ATCC 19606) [h]	Toxicity toward C. elegans (survival) (Caenorhabditis elegans)	MIC (E. coli ATCC 25922) [µg/mL]	MIC [1] [µg/mL]
Cc1nc2ccccc2n1C(=O)/C=C/c1ccc(Br)cc1 [Compound 4]	devoid of hemolytic activity even at the highest concentration tested (4 × MIC, Figure 9D)	≤ 3			
Cc1nc2ccccc2n1C(=O)/C=C/c1ccccc1 [Compound 1]		> 3	do not have in vivo toxicity in this model at 2 × MICs for up to 72 h	128 (≈ 488 µM)	128 (≈ 488 µM)
COc1ccc(/C=C/C(=O)n2c(C)nc3ccccc32)cc1OC [Compound 5]	only non-lytic at a low concentration (0.25 × MIC, Figure 9E)		significant toxicity (p < 0.05) but only after 72 h treatment		
Cc1nc2ccccc2n1C(=O)/C=C/c1ccc(F)cc1 [Compound 2]		≤ 3	do not have in vivo toxicity in this model at 2 × MICs for up to 72 h		
Cc1nc2ccccc2n1C(=O)/C=C/c1ccc(Cl)cc1 [Compound 3]		≤ 3	do not have in vivo toxicity in this model at 2 × MICs for up to 72 h		
Cc1nc2ccccc2n1C(=O)/C=C/c1ccc(Cl)cc1Cl [Compound 6]		≤ 3	devoid of hemolytic activity and cytotoxicity against mammalian cells in vitro, as well as adverse activity in a Caenorhabditis elegans nematode model		
